# Activity calls are given as the source filed them.
# Key:
# [1] = viability of PTEN-deleted HCT116 cells – cell-based, HCT116 PTEN knockout, dose response (AID 1047); format: functional;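 note: HCT116 colon tumor cells with PTEN knocked out; cells exposed to compound for 60 hours before readout; potency for loss of cell viability measured by luminescence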
# [2] = viability of HCT116 lacking mutant beta-catenin – cell-based, human colon tumor, dose response (AID 1045); format: functional;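 note: HCT116 colon tumor cells with beta catenin knocked out; cells exposed to compound for 60 hours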
# [3] = biological target: T1, Calpain-2 catalytic subunit (Sus scrofa, UniProt P43367); assay: m-calpain protease blockers, concentration series – biochemical, fluorogenic peptide substrate, dose response (AID 1420); format: functional
# T1 sequence (P43367 whole entry): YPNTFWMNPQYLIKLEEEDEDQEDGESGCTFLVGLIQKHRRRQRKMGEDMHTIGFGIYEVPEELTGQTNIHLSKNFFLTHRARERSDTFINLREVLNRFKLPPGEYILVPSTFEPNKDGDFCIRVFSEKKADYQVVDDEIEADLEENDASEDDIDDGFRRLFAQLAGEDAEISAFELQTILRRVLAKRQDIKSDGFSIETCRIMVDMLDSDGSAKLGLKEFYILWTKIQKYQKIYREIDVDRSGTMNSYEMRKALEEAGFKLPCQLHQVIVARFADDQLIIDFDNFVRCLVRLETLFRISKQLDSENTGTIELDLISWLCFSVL
# [4] = biological target: T2, Heat shock factor protein 1 (Mus musculus, UniProt P38532); assay: decrease of HSF1-responsive luciferase luminescence – cell-based, NIH3T3, dose retest, confirmation (AID 2382); format: functional;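 note: NIH3T3 fibroblasts with HSF1-driven luciferase reporter stressed by proteasome inhibitor MG132; luminescence from HSF1-driven luciferase expression after 8 hours of MG132 stress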
# T2 sequence (P38532 whole entry): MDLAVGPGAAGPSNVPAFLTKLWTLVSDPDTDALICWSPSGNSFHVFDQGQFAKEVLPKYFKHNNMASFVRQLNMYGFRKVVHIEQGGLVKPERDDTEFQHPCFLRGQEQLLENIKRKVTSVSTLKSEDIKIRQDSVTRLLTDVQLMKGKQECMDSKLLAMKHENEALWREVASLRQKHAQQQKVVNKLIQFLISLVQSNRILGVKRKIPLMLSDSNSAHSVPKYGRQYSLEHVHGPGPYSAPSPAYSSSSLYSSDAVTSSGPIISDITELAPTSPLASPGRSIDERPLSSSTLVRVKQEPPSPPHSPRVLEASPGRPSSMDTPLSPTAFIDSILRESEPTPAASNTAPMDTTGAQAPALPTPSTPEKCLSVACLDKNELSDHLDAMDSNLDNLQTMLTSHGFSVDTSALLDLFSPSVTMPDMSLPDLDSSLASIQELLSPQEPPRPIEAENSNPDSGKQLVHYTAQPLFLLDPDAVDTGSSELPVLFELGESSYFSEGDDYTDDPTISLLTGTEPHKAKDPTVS
# [5] = reduction of Shn3 3'UTR-driven luciferase in osteoblasts – cell-based, Clone20 osteoblasts, firefly luciferase, cherry-picked, dose response (AID 624132); format: functional;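 note: firefly luciferase luminescence from reporter carrying the Shn3 3'UTR in osteoblasts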
# [6] = loss of viability in HepG2 cells – cell-based, CellTiter-Glo, cherry-picked, cytotoxicity control for Shn3 inhibitor project, dose response (AID 624134); format: functional
# [7] = non-specific 3'UTR reporter inhibition in Clone20-Shn3RL – cell-based, Renilla luciferase, cherry-picked, counter-screen for Shn3 inhibitor project, dose response (AID 624133); format: functional
# Prothrombin = Prothrombin (Homo sapiens, UniProt P00734); assay: Thrombin 1536 HTS Dose Response Confirmation. [Related pubchem assays: 1046 (Thrombin 1536 HTS; hits were confirmed in this assay)]; format: functional
# cells [8] = format: functional, cell-based
# cells [9] = format: functional, cell-based; remark: listed apart in the source
# Nonstructural protein 1 = Nonstructural protein 1 (Influenza A virus, UniProt Q194T2); format: functional, Influenza A virus (A/California/07/2009(H1N1))
# INS1 = assay: INS-1E survival protection against cytokine death – cell-based, luminescence, retest, dose response (AID 449756); format: functional; conditions: Rattus norvegicus;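 note: cell death triggered by IL-1 beta plus TNF-alpha plus IFN-gamma mixture; protective hits raise ATP signal compared with cytokine alone wells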
# [10] = viability of uninfected HEp-2 cells – cell-based, HTS, cytotoxicity control for RSV inhibitor project, dose response (AID 2410); format: functional; conditions: human respiratory syncytial virus
# Large T antigen = Large T antigen (Simian virus 40, UniProt P03070); format: functional, Betapolyomavirus macacae;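 note: Confirmatory-stage PubChem screen for compounds that inhibit SV40 T antigen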
# [11] = biological target: T3, Polyadenylate-binding protein 1 (Homo sapiens, UniProt P11940); assay: MLLE binding blockers, Cy5 peptide tracer – biochemical, fluorescence polarization, Cy5-PAM2 peptide, secondary, miRNA deadenylation inhibitor project, dose response (AID 602260); format: functional; conditions: read-out: IC50_Mean
# [12] = biological target: T3, Polyadenylate-binding protein 1; assay: MLLE domain peptide-binding blockers, IC50 – biochemical, fluorescence polarization, FITC-PAM2 peptide, dose response (AID 602259); format: functional; conditions: read-out: IC50_Mean
# Cytochrome P450 2D6 = Cytochrome P450 2D6 (Homo sapiens, UniProt P10635);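 note: CYP2D6 member of a cytochrome P450 panel assay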
# Cytochrome P450 1A2 = biological target: T4, Cytochrome P450 1A2 (Homo sapiens, UniProt P05177);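 note: PubChem cytochrome P450 panel assay, CYP1A2 panel member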
# T4 sequence (P05177 whole entry): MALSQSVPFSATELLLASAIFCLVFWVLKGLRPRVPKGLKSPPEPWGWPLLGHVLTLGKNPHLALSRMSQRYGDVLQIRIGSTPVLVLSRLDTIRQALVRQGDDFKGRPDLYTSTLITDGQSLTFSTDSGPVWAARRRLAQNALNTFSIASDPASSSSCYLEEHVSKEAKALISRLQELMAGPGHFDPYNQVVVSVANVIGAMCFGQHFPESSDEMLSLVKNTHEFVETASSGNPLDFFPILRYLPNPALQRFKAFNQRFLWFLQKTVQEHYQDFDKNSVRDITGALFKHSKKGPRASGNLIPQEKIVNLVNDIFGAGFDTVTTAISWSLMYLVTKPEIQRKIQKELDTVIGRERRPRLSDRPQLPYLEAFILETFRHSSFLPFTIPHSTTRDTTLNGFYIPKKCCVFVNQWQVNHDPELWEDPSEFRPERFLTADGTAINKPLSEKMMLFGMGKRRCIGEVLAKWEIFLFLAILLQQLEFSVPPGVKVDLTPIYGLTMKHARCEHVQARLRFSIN
# Cytochrome P450 2C9 = Cytochrome P450 2C9 (Homo sapiens, UniProt P11712)
# P388/ADR = assay: cells; format: functional; conditions: Mus musculus
# SN12K1 = assay: cells; format: functional; conditions: Homo sapiens
# P388 = assay: cells; format: functional; conditions: Mus musculus
# [13] = Luminescence Cell-Based Dose Retest to Confirm Inhibitors of Cancer Stem Cells. [Related pubchem assays (depositor defined):AID2717, AID2721]; format: functional; conditions: Homo sapiens
# Genome polyprotein = Genome polyprotein (dengue virus type 2, UniProt P29990); assay: flavivirus cap methylation enzyme inhibition – biochemical, confirmation dose response, primary screen (AID 588689); format: functional
# Protein skinhead-1 = biological target: T5, Protein skinhead-1 (Caenorhabditis elegans, UniProt P34707); format: functional
# T5 sequence (P34707 whole entry): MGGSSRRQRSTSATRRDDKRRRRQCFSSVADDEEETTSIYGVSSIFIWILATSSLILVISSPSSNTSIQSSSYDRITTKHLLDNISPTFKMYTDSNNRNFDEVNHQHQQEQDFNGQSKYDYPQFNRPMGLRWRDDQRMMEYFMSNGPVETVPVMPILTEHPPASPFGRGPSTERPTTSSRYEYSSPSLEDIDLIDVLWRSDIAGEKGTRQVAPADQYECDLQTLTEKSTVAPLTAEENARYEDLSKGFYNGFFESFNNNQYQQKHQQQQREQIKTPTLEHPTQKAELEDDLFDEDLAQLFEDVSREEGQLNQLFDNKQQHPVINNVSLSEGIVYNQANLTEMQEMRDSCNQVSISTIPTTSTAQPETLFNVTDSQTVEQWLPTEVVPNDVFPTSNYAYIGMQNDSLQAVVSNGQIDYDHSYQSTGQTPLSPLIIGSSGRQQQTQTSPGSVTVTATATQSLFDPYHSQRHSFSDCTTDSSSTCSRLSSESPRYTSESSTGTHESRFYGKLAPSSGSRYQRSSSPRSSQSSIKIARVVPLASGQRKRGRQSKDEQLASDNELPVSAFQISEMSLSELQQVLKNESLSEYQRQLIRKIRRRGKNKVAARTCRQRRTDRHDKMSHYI
# Large T antigen, sequence (P03070 whole entry): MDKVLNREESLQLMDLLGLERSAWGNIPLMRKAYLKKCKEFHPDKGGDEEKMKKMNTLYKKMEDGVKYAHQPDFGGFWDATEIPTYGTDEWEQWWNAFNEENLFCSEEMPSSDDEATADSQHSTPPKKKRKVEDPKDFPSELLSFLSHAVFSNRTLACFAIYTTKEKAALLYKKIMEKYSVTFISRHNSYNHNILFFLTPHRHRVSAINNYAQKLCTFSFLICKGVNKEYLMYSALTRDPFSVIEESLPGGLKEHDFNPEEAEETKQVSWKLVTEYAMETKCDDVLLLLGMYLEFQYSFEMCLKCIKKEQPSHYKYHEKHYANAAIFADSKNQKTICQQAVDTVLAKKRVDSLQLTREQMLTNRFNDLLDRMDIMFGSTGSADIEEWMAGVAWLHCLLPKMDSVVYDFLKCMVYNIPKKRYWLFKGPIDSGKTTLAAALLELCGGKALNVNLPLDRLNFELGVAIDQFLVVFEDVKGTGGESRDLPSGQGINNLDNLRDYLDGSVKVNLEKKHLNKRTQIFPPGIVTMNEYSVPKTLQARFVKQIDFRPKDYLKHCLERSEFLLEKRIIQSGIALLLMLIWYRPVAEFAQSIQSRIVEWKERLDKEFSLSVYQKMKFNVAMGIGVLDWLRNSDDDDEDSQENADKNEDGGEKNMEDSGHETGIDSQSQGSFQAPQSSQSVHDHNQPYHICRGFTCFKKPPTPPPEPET
# Nonstructural protein 1, sequence (Q194T2 whole entry): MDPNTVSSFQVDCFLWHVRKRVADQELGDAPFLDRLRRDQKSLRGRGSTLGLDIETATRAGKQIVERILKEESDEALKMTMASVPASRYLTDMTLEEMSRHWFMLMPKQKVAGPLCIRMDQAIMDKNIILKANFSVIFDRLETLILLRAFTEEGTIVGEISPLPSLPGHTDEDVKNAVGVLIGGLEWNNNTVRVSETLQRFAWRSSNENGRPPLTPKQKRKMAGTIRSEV
# T3 sequence (P11940 whole entry, the tested form may be a part): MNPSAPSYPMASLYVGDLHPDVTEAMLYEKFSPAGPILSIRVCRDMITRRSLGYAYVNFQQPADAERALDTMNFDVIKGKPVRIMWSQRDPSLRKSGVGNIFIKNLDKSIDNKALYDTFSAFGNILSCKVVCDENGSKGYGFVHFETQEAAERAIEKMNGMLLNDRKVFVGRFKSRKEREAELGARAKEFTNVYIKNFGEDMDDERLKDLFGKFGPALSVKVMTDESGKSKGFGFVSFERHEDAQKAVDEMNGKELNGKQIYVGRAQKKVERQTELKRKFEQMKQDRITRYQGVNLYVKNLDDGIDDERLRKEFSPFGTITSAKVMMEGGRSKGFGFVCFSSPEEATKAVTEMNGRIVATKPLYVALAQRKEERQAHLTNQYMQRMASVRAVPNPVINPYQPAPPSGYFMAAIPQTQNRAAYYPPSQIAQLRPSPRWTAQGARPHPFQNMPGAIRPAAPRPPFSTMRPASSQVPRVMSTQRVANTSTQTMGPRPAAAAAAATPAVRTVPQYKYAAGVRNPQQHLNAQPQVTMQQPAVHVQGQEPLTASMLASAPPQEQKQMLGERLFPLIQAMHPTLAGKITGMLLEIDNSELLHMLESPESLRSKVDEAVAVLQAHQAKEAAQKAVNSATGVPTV
# Cytochrome P450 2C9, sequence (P11712 whole entry): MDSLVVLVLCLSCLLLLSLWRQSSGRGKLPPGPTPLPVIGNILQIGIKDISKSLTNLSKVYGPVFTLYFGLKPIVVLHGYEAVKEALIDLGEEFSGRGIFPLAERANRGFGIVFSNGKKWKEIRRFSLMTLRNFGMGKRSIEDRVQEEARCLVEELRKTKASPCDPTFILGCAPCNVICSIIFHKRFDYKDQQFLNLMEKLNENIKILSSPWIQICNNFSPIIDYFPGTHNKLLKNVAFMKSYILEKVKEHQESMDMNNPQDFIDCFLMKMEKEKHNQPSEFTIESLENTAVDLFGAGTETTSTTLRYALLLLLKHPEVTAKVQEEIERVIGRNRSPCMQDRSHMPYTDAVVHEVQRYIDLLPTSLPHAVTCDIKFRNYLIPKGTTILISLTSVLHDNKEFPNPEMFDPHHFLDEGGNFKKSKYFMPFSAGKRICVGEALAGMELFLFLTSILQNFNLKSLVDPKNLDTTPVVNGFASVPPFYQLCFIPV
# Cytochrome P450 2D6, sequence (P10635 whole entry): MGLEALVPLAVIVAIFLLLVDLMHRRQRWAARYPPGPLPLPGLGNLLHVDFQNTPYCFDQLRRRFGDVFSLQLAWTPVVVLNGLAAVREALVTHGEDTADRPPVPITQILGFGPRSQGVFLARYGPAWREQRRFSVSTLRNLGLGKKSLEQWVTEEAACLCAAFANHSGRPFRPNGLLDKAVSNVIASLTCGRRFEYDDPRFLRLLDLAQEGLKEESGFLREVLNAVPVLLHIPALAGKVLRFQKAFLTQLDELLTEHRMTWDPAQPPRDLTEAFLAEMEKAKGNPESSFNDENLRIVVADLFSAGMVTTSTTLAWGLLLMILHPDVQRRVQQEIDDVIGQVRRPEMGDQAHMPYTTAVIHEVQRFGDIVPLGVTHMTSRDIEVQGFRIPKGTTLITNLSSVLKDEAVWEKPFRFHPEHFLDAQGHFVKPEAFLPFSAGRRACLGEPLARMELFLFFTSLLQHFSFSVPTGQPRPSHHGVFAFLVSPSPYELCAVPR
# Genome polyprotein, sequence (P29990 2492-3391 limits assumed): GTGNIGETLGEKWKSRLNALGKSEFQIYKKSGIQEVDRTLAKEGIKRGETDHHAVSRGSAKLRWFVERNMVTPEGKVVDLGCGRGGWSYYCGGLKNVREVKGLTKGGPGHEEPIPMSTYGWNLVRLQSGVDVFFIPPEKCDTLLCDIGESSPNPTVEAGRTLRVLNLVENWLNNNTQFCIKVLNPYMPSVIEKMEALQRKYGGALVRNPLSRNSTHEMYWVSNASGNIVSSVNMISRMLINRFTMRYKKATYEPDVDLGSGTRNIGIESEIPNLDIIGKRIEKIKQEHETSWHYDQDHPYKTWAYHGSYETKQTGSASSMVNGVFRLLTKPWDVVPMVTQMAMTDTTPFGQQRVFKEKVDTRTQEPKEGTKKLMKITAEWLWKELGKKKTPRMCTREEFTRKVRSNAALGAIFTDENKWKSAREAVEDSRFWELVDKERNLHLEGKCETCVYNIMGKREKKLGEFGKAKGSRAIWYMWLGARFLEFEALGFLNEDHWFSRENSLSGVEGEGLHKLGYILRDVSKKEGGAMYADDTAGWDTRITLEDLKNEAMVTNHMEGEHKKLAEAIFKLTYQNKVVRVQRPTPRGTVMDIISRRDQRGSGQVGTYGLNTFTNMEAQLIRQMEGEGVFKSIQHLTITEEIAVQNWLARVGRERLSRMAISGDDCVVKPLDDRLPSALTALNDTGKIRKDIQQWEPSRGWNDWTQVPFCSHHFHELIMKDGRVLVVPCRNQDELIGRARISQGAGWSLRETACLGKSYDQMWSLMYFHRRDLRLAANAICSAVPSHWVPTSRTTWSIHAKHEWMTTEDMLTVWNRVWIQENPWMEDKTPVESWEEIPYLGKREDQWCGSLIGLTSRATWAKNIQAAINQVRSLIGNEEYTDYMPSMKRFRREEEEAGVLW
structure (smiles),measurement,setting,value
N#Cc1ccc(/C=C/C(=O)c2ccco2)cc1,EC50,[1],16.6 µM (active)
same,EC50,[2],17.2 µM (active)
Cc1cccc(N/C=C/C(=C(C#N)C#N)N(C)C)c1,IC50,[3],15.6 µM (not active)
CCOC(=O)c1c(CSCc2ccccc2)oc2ccc(O)c(CN(C)C)c12,EC50,[4],> 195 µM (not active)
same,AC50,[5],9.79 µM (active)
same,AC50,[6],22.2 µM (active)
same,AC50,[7],10.7 µM (active)
Cc1ccc(S(=O)(=O)CC(=O)Nc2c(C)n(C)n(-c3ccccc3)c2=O)cc1,IC50,Prothrombin,3.58 µM (active)
COc1cnc(-c2ccccn2)nc1N(C)C,EC50,cells [8],8.34 µM (active)
same,EC50,cells [9],214 µM (active)
same,IC50,Nonstructural protein 1,1.92 µM (active)
same,AC50,INS1,8.4 µM (active)
O=C1OC(Nc2ccc(F)c([N+](=O)[O-])c2)c2ccccc21 (stereo not drawn),IC50,Prothrombin,> 50 µM (not active)
CCCC(=O)n1nc(-c2ccco2)nc1N,IC50,Prothrombin,1.28 µM (active)
COc1ccc(C(C)C)cc1S(=O)(=O)Nc1ccncc1,IC50,Prothrombin,> 50 µM (not active)
CCC(=O)Nc1ccc(C(=O)CSc2nc3ccccc3cc2CC)cc1,IC50,Prothrombin,> 50 µM (not active)
Cn1nc(-c2ccc(Cl)cc2)c2cc(C(=O)N3CCN(c4ccccn4)CC3)sc21,CC50,[10],3.7 µM (active)
same,AC50,[5],4.02 µM (active)
same,AC50,[6],> 70 µM (inactive)
same,AC50,[7],28.6 µM (active)
O=C(COC(=O)C12CC3CC(CC(O)(C3)C1)C2)NCCc1ccc(Cl)cc1,IC50,Prothrombin,> 50 µM (not active)
COc1ccc(-n2c(=O)c3c4c(sc3n3c(=S)[nH]nc23)CCC4)cc1,IC50,Large T antigen,20.4 µM (active)
CC(C)Cn1c(N)c(C(=O)COC(=O)c2ccc(F)cc2)c(=O)n(C)c1=O,IC50,[3],4.8 µM (not active)
CC(=O)c1ccc(NC(=O)c2noc(C(C)C)c2[N+](=O)[O-])cc1,IC50,[3],3.66 µM (active)
O=C1CC(c2ccccc2)Cc2nc(N3CCc4ccccc4C3)ncc21 (stereo not drawn),IC50,[3],6.43 µM (not active)
same,IC50,[11],> 66 µM (inactive)
same,IC50,[12],> 66 µM (inactive)
CC(Cc1ccccc1Sc1ccc(O)cc1)N(C)C (stereo not drawn),IC50,Large T antigen,71.9 µM (active)
O=C(c1csnn1)N1CCC2(CC1)CCN(c1ccccn1)CC2,AC50,Cytochrome P450 2D6,20 µM (inconclusive)
same,AC50,Cytochrome P450 1A2,25.1 µM (inconclusive)
same,AC50,Cytochrome P450 2C9,20 µM (inconclusive)
CCC(=C(c1ccc(OC)cc1)c1ccc(OC)cc1)c1cn(CC(O)CN2CCN(C)CC2)c2ccccc12 (stereo not drawn),EC50,[1],7.95 µM (active)
same,EC50,[2],6.34 µM (active)
C[N+](C)(C)CCOC(=O)/C=C/c1c[nH]cn1,GI50,P388/ADR,> 316 µM (inactive)
same,GI50,SN12K1,> 500 µM (inactive)
same,GI50,P388,> 500 µM (inactive)
CN(C)CCOc1cc2c(c3ccccc13)-c1ccccc1C2O (stereo not drawn),GI50,P388/ADR,5.77 µM (inactive)
same,GI50,SN12K1,6.62 µM (inactive)
same,GI50,P388,5.02 µM (inactive)
CC1=CC(=O)C(C(C)C)=C/C1=C(\c1cc(C(C)C)c(OP(=O)(O)O)cc1C)c1ccccc1C(=O)O,AC50,[13],2.27 µM (active)
same,IC50,Genome polyprotein,33.4 µM (active)
O=S(=O)(O)c1cc(/N=N/c2cc(S(=O)(=O)O)c3ccccc3c2O)ccc1/C=C/c1ccc(/N=N/c2cc(S(=O)(=O)O)c3ccccc3c2O)cc1S(=O)(=O)O,GI50,P388/ADR,36.6 µM (inactive)
same,GI50,SN12K1,> 78.9 µM (inactive)
same,GI50,P388,> 100 µM (inactive)
CSC1SCC2C(=O)N(C)C(C(C)C)C(=O)OCC(NC(=O)c3cnc4ccccc4n3)C(=O)NC(C)C(=O)N(C)C1C(=O)N(C)C(C(C)C)C(=O)OCC(NC(=O)c1cnc3ccccc3n1)C(=O)NC(C)C(=O)N2C (stereo not drawn),AC50,[5],< 0.26 µM (active)
same,GI50,P388/ADR,9.55e-05 µM (active)
same,AC50,[7],< 0.26 µM (active)
same,GI50,SN12K1,0.0075 µM (active)
same,GI50,P388,0.0075 µM (active)
same,IC50,Protein skinhead-1,81.5 µM (inactive)
O=CC(NC(=O)N(CCCl)N=O)C(O)C(O)C(O)CO (stereo not drawn),GI50,P388/ADR,79.6 µM (inactive)
same,GI50,SN12K1,760 µM (inactive)
same,GI50,P388,97.7 µM (inactive)
CN(C)C(=O)Oc1c(Br)cc(Br)cc1C(=O)OCc1ccccc1,GI50,P388/ADR,16 µM (inactive)
same,GI50,SN12K1,28.4 µM (inactive)
same,GI50,P388,17.9 µM (inactive)
CC(=O)c1c(O)n(Nc2nc(C)cc(C)n2)c(C)cc1=O,IC50,Nonstructural protein 1,12.9 µM (active)
O=C(OC[C@H]1O[C@@H](OC(=O)c2cc(O)c(O)c(OC(=O)c3cc(O)c(O)c(O)c3)c2)[C@H](OC(=O)c2cc(O)c(O)c(OC(=O)c3cc(O)c(O)c(O)c3)c2)[C@@H](OC(=O)c2cc(O)c(O)c(OC(=O)c3cc(O)c(O)c(O)c3)c2)[C@@H]1OC(=O)c1cc(O)c(O)c(OC(=O)c2cc(O)c(O)c(O)c2)c1)c1cc(O)c(O)c(OC(=O)c2cc(O)c(O)c(O)c2)c1 [TANNIC ACID],IC50,Large T antigen,< 0.16 µM (active)
